Experimental findings from patent US20250170266A1 (ZYMEWORKS BC INC., priority 2022, published 2025) are described below.

Read-outs that look alike come from different tables or passages of the source.

What all share (type): cell-based
The target of one assay is T1, hTLR7 (Homo sapiens, UniProt Q9NYK1).
T1 construct: host or cells: HEK-Blue hTLR7 reporter cells (HEK293-derived, own knowledge)
T1 sequence (Q9NYK1 27-1049): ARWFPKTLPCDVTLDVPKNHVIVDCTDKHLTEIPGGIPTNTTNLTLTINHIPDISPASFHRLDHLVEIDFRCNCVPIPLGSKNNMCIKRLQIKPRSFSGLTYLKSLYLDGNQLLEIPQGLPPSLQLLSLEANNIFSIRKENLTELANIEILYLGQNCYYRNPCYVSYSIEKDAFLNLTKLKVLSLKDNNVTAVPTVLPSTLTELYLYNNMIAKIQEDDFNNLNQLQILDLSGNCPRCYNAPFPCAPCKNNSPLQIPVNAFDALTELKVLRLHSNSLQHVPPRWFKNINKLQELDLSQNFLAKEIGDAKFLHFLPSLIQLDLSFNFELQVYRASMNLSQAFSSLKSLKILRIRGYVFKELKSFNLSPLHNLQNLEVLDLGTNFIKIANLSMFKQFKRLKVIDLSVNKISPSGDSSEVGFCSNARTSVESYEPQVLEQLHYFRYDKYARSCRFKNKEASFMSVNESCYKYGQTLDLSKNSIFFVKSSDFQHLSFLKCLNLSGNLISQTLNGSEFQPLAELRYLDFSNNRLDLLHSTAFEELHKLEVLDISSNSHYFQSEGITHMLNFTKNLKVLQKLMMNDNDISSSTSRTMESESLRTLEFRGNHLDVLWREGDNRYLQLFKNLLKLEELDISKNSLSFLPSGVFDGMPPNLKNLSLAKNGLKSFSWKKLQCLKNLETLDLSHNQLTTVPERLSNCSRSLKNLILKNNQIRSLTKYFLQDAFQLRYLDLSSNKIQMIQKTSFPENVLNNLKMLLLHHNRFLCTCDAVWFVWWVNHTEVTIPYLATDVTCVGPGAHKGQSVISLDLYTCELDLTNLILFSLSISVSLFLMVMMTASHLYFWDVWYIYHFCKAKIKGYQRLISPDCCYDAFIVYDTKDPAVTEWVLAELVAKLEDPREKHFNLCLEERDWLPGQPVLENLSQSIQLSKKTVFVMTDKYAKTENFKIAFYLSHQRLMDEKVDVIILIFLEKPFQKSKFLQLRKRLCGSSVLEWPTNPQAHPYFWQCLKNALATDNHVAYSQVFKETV
Description: Reporter Gene Assay (RGA), HEK-Blue hTLR7 reporter cells, SEAP readout. The note with it: overnight incubation, SEAP absorbance 620 nm. The gist of the method:
(§1)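 HEK-Blue reporter cells expressing human or mouse TLR7 (1.5×10^4 cells) were treated with an 11-point, 4-fold compound titration from 15 pM in HEK-Blue Detection medium. Incubation was overnight at 37° C with 5% CO2. Secreted embryonic alkaline phosphatase was read as absorbance at 620 nm.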
(A reporter such as luciferase makes a cellular process visible.)

Another assay deals with T2, mTLR7 (Mus musculus, UniProt P58681).
T2 construct: host or cells: HEK-Blue mTLR7 reporter cells (HEK293-derived, own knowledge)
T2 sequence (P58681 27-1050): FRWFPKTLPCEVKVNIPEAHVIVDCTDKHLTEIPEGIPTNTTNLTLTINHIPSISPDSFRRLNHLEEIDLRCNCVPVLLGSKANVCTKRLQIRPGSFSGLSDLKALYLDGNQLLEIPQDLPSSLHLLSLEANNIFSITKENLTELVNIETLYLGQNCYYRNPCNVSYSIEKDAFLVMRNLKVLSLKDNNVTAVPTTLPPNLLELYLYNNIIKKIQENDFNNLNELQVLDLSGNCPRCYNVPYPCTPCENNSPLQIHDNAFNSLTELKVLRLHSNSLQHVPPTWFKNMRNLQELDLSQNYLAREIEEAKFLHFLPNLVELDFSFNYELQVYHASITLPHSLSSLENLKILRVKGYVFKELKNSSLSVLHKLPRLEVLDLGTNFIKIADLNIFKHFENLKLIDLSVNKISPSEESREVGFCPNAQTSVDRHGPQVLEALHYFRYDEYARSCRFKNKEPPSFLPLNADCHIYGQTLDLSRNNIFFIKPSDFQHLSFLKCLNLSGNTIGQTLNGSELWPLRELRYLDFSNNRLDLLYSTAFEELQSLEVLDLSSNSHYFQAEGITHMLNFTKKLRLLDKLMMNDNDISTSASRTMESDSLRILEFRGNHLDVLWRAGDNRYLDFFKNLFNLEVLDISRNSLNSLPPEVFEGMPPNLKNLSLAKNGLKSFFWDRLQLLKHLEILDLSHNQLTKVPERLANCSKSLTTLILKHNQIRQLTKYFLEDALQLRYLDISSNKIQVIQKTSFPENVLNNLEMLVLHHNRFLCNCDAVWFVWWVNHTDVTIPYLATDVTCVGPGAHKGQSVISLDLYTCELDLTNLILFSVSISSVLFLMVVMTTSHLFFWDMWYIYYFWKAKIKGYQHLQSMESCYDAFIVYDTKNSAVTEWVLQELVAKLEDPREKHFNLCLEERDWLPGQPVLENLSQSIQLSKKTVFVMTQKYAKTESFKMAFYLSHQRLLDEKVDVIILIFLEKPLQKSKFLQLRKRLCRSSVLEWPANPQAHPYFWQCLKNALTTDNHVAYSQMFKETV
Description: Reporter Gene Assay (RGA), HEK-Blue mTLR7 reporter cells, SEAP readout. The note with it: overnight incubation, SEAP absorbance 620 nm. The gist of the method:
as §1

Assay [1] has as its system Human peripheral blood mononuclear cells (PBMCs). Description: Human PBMC Assay, cytokine release (HTRF). The note with it: PBMC, 24 hours. The essentials:
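Cryopreserved human PBMCs, rested overnight with 10 ng/ml hIL3, then 300,000 cells/well treated 24 h at 37° C with compound (4-fold, 11-point titration from 15 μM) in RPMI+10% FBS. Supernatant hIL6, hTNFα and hIFNα measured by HTRF; growth medium as negative control.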
In general terms: TR-FRET usually uses a lanthanide donor and a delayed reading to cut background.

A further assay has as its system Mouse splenocytes. Kind of assay: Mouse Splenocyte Assay, cytokine release (HTRF). The note with it: 24 hours, mIL6 in supernatant; for EC50: Splenocyte, read-out: Splenocyte IL6 EC50. The gist of the method:
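Splenocytes from female balb/c nude mice, thawed, 100,000 per well in RPMI + 10% FBS. Exposed for 24 h at 37 °C to a 4-fold 11-point compound titration from 15 μM; supernatant mIL6 and mTNFα measured by HTRF.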

Where [2] appears, read: hIFNα in supernatant, EC50 values approximated and divided into groups, read-out: PBMC IFNa EC50.
Where [3] appears, read: hIL6 in supernatant, read-out: PBMC IL6 EC50.

`CCOc1nc(N)c2nc(O)n(Cc3ccc(CN4C[C@@H]5C[C@H]4CN5)cc3OC)c2n1` [Compound 128, 9-(4-(((1S,4S)-2,5-diazabicyclo[2.2.1]heptan-2-yl)methyl)-2-methoxybenzyl)-6-amino-2-ethoxy-9H-purin-8-ol]: the EC50 is 18.2 nM at hTLR7, 443 nM on mTLR7, 1 to 10 nM in assay [1] (setting [2]) and 167 nM in assay [1] (setting [3]). Besides, in the assay on Mouse splenocytes, the “Splenocyte IL6 EC50 (nM)” value was “inactive”.
As for `CCOc1nc(N)c2nc(O)n(Cc3ccc(CN4CCC(CN)CC4)cc3OC)c2n1` [Compound 132, 6-amino-9-(4-((4-(aminomethyl)piperidin-1-yl)methyl)-2-methoxybenzyl)-2-ethoxy-9H-purin-8-ol], the EC50 on hTLR7 was 5.8 nM; on mTLR7 it was 65.1 nM; in assay [1] (setting [2]) it was more than 10 nM; in assay [1] (setting [3]), 116 nM; with Mouse splenocytes it was 234 nM.
With `CCOc1nc(N)c2nc(O)n(Cc3ccc(CNCCN4CCOCC4)cc3OC)c2n1` [Compound 135, 6-amino-2-ethoxy-9-(2-methoxy-4-(((2-morpholinoethyl)amino)methyl)benzyl)-9H-purin-8-ol], the EC50 was 13.3 nM at hTLR7; 157 nM at mTLR7; 0.1 to 1 nM in assay [1] (setting [2]); 42.3 nM in assay [1] (setting [3]); 137 nM in the assay with Mouse splenocytes.
The like results for `CCOc1nc(N)c2nc(O)n(Cc3ccc(CNCCN4CCSCC4)cc3OC)c2n1` [Compound 137, 6-amino-2-ethoxy-9-(2-methoxy-4-(((2-thiomorpholinoethyl)amino)methyl)-benzyl)-9H-purin-8-ol] were, in that order, 22.2 nM, 210 nM, 0.1 to 1 nM, 39.4 nM and 230 nM.
The like results for `CCOc1nc(N)c2nc(O)n(Cc3ccc(CN4CCC(C5CCNCC5)CC4)cc3OC)c2n1` [Compound 138, 9-(4-([4,4′-bipiperidin]-1-ylmethyl)-2-methoxybenzyl)-6-amino-2-ethoxy-9H-purin-8-ol] were, in that order, 17.2 nM, 243 nM, more than 10 nM, 130 nM and 186 nM.
On the same counts, the results for `CCOc1nc(N)c2nc(O)n(Cc3ccc(CN4CCC5(CCNCC5)CC4)cc3OC)c2n1` [Compound 139, 9-(4-((3,9-diazaspiro[5.5]undecan-3-yl)methyl)-2-methoxybenzyl)-6-amino-2-ethoxy-9H-purin-8-ol] are 6.5 nM, 96.5 nM, more than 10 nM, 115 nM and 170 nM.
`CCOc1nc(N)c2nc(O)n(Cc3ccc(CN4CCC(CCN)CC4)cc3OC)c2n1` [Compound 140, 6-amino-9-(4-((4-(2-aminoethyl)piperidin-1-yl)methyl)-2-methoxybenzyl)-2-ethoxy-9H-purin-8-ol]: the EC50 at hTLR7 was 6.8 nM; on mTLR7 it was 34.8 nM; in assay [1] (setting [2]), more than 10 nM; in assay [1] (setting [3]), 53.6 nM; in the assay with Mouse splenocytes it was 180 nM.
On the same counts, the results for `CCCN(CCC)Cc1ccc(CNCc2ccc(Cn3c(O)nc4c(N)nc(OCC)nc43)c(OC)c2)cc1` [Compound 141, 6-amino-9-(4-(((4-((dipropylamino)methyl)benzyl)amino)methyl)-2-methoxy-benzyl)-2-ethoxy-9H-purin-8-ol] are 0.1 nM, 1 nM, less than 0.1 nM, 9290 nM and 1.3 nM.
On the same counts, the results for `CCOc1nc(N)c2nc(O)n(Cc3ccc(CNCc4ccc(CN5CCOCC5)cc4)cc3OC)c2n1` [Compound 142, 6-amino-2-ethoxy-9-(2-methoxy-4-(((4-(morpholinomethyl)benzyl)amino)-methyl)benzyl)-9H-purin-8-ol] are 2.6 nM, 14.6 nM, less than 0.1 nM, 13.6 nM and 9.9 nM.
The like results for `CCOc1nc(N)c2nc(O)n(Cc3ccc(CNCc4ccc(CN5CCC(NC(=O)OC(C)(C)C)CC5)cc4)cc3OC)c2n1` [Compound 143, tert-butyl-(1-(4-(((4-((6-amino-2-ethoxy-8-hydroxy-9H-purin-9-yl)methyl)-3-methoxybenzyl)amino)methyl)benzyl)piperidin-4-yl)carbamate] were, in that order, 0.2 nM, 15.1 nM, less than 0.1 nM, 27.1 nM and 9.6 nM.
On to `CCOc1nc(N)c2nc(O)n(Cc3ccc(CNCc4ccc(CN5CCC(N)CC5)cc4)cc3OC)c2n1` [Compound 144, 6-amino-9-(4-(((4-((4-aminopiperidin-1-yl)methyl)benzyl)amino)methyl)-2-methoxybenzyl)-2-ethoxy-9H-purin-8-ol], for which the EC50 on hTLR7 is 79.5 nM; on mTLR7 it was 1330 nM; in assay [1] (setting [2]), more than 10 nM; in assay [1] (setting [3]), 191 nM; with Mouse splenocytes, 372 nM.
As for `CCOc1nc(N)c2nc(O)n(Cc3ccc(CNCc4ccc(CN5CCNCC5)cc4)cc3OC)c2n1` [Compound 145, 6-amino-2-ethoxy-9-(2-methoxy-4-(((4-(piperazin-1-ylmethyl)benzyl)amino)-methyl)benzyl)-9H-purin-8-ol], the EC50 on hTLR7 was 69 nM; on mTLR7, 142 nM; in assay [1] (setting [3]) it was 126 nM; with Mouse splenocytes it was 338 nM.
For `CCOc1nc(N)c2nc(O)n(Cc3ccc(CNCc4ccc(CNCc5ccc(CN)cc5)cc4)cc3OC)c2n1` [Compound 146, 6-amino-9-(4-(((4-(((4-(aminomethyl)benzyl)amino)methyl)benzyl)amino)-methyl)-2-methoxybenzyl)-2-ethoxy-9H-purin-8-ol], the EC50 is 5.8 nM on hTLR7; 28.7 nM at mTLR7; less than 0.1 nM in assay [1] (setting [2]); 16.7 nM in assay [1] (setting [3]); 12.9 nM in the assay with Mouse splenocytes.

For orientation: EC50 means the concentration giving half of the maximal effect.
